pIC50: −log10 of the molar value. Read-outs that look alike come from different tables or passages of the source.
Columns and labels:
Rat PK evaluation = format: in vivo; details: SD rats; for Vz_obs iv (apparent distribution volume) / bioavailability / AUC(0-t) / clearance / half-life: n = 3; for bioavailability / AUC(0-t) / clearance / half-life / Tmax: rat, plasma; for bioavailability: read-out: F % (absolute bioavailability); for clearance: read-out: Cl_obs iv (clearance rate) (converted); for Tmax: n = 3, median, read-out: Tmax po (time to peak plasma concentration)
Description: Assay 2: Rat PK Evaluation for the Compounds of the Present Invention
Animal Administration and Sample Collection:
(§1) The test compounds 14, 15, 16, 20, 29, 30, 31, 32, 33, 34, 36, 37, 47 and 48 were dissolved in 5% DMSO+20% (30% solutol)+75% saline to prepare the compound solutions. Each of the compound solutions was intragastrically administered to SD rats at a dose of 5.0 mg/kg. The time points of blood collection were: 15 minutes, 30 minutes, 1 hour, 2 hours, 4 hours, 6 hours, 8 hours, 24 hours, 30 hours, and 48 hours.
The test compounds 38, 39, 40 and 41 were dissolved in 5% NMP+5% Tween-80+90% saline to prepare the compound solutions. Each of the compound solutions was intragastrically administered to SD rats at a dose of 5.0 mg/kg. The time points of blood collection were: 15 minutes, 30 minutes, 1 hour, 2 hours. 4 hours, 6 hours, 8 hours, 24 hours, 30 hours, and 48 hours.
as §1, with “was” for “was intragastrically”, “administered by intravenous bolus injection” for “administered”, “1” for “5.0”, “were: 5 minutes,” for “were:”, “hours,” for “hours, 30 hours,”
The test compounds 38, 39, 40 and 41 were dissolved in 5% NMP+5% Tween-80+90% saline to prepare the compound solutions. Each of the compound solutions was administered by intravenous bolus injection to SD rats at a dose of 1 mg/kg. The time points of blood collection were: 5 minutes, 15 minutes, 30 minutes, 1 hour, 2 hours, 4 hours, 6 hours, 8 hours, 24 hours, and 48 hours.
The animal was fixed. The tail was heated in a water bath pot 10 minutes before each time point. About 100 μL of blood was collected through the tail vein. The blood was collected and placed in an anti-coagulation tube containing EDTA-K2. The blood sample was centrifuged at 8000 rpm for 6 minutes at 4° C. to obtain a plasma sample. The plasma was prepared within 30 minutes after the blood collection. The plasma was stored in a −80° C. refrigerator before testing.
The sample to be tested was taken out from the −80° C. refrigerator, naturally melted at room temperature and vortexed for 5 minutes. 20 μL of plasma sample was accurately pipetted into a 1.5 mL centrifuge tube. 200 μL of an internal standard working solution (a solution of tolbutamide in methanol) having a concentration of 100 ng/mL was added and mixed well. The mixture was vortexed for 5 minutes, and centrifuged at 12000 rpm for 5 minutes. 50 μL of the supernatant was accurately pipetted into a 96-well plate pre-filled with 150 μL/well of water. The plate was vortexed for 5 minutes and mixed well, and then the LC-MS/MS determination and analysis were performed.
The concentration of the test substance was output using Analyst 1.6.3 from AB Company. Parameters such as mean, standard deviation, and coefficient of variation were calculated with Microsoft Excel (direct outputs from Analyst 1.6.3 were not calculated), and the PK parameters were calculated using Pharsight Phoenix 6.1 software NCA (Tmax was the median).

CSF1R (h) = target: T1, CSF1R (h) (Homo sapiens, UniProt P07333); assay: Enzymatic activity test, CSF1R (h); format: biochemical; details: 10 μM [γ-33P]-ATP, 40 minutes, room temperature
T1 construct: purchased
T1 sequence (P07333 20-972): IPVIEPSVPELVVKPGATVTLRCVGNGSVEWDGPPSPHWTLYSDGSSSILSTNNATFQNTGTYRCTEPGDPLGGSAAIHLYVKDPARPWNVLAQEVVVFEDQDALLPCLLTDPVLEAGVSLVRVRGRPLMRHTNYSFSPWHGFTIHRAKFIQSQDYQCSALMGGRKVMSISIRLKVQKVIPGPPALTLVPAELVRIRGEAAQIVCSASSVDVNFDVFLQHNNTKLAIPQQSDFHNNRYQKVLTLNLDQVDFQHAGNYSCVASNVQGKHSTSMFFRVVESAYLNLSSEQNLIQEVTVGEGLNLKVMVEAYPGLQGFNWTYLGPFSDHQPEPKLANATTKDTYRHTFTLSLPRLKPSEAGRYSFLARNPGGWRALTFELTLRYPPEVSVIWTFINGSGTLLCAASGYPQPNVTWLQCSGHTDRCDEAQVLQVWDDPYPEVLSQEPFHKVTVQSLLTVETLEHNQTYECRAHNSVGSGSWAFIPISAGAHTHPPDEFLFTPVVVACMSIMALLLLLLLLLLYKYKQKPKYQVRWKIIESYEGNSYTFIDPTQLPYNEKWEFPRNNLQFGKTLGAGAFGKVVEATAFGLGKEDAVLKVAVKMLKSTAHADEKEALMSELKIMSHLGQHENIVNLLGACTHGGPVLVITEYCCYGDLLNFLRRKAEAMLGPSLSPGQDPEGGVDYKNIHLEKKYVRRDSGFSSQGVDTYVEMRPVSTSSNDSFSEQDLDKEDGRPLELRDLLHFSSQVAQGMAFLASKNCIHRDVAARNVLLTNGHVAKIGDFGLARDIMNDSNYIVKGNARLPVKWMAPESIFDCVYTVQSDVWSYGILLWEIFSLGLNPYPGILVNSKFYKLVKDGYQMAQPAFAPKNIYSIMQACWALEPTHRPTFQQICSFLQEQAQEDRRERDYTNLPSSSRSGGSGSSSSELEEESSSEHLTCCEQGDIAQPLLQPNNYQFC
Description: Assay 3: Enzymatic Activity Test of the Compounds of the Present Invention
Test substances: the compounds of the present invention, wherein the structures and preparations thereof were as described above.
(1) Preparation of the Compound Stock Solution
The compound was dissolved in 100% DMSO to prepare a stock solution with a maximum concentration of 500 μM.
(2) Preparation of the Compound Working Solution
The compound stock solution was diluted to final concentrations of 500, 150, 50, 15, 5, 1.5, 0.5, 0.15 and 0.05 μM to become the compound working solutions (50×).
(3) Preparation of Different Enzyme Reaction Solutions
The enzymatic reaction was activated by using 10 mM magnesium acetate and 10 μM [γ-^33P]-ATP to form an Mg/ATP mixed solution.
In a 384-well plate, the compound working solution was added to final concentrations of 10000, 3000, 1000, 300, 100, 30, 10, 3, and 1 nM. Then different enzyme reaction solutions prepared according to the above conditions were added. The incubation was carried out for 40 minutes at room temperature. The test was terminated by the addition of a 0.5% phosphoric acid solution. 10 μL of the reaction solution was taken and dropped to the P30 filter paper. […] The grayscale analysis of the results was performed using Image J software and the IC50 values were calculated using GraphPad 5.0 software.

[1] = IV 1 mg/kg, read-out: AUClast iv (area under the drug-time curve from 0 to 48 hours)
[2] = IV 1 mg/kg, read-out: tz1/2 iv (terminal elimination half-life) (converted)
[3] = PO 5 mg/kg, read-out: AUClast po (area under the drug-time curve from 0 to 48 hours)
[4] = PO 5 mg/kg, read-out: tz1/2 po (terminal elimination half-life) (converted)

SMILES	Vz_obs iv (apparent distribution volume) (Rat PK evaluation; IV 1 mg/kg) [L/kg]	bioavailability (Rat PK evaluation; IV 1 mg/kg, PO 5 mg/kg) [%]	AUC(0-t) (Rat PK evaluation; [1]) [ng·h/mL]	clearance (Rat PK evaluation; IV 1 mg/kg) [mL/min/kg]	half-life (Rat PK evaluation; [2]) [h]	Tmax (Rat PK evaluation; PO 5 mg/kg) [h]	AUC(0-t) (Rat PK evaluation; [3]) [ng·h/mL]	half-life (Rat PK evaluation; [4]) [h]	pIC50 (CSF1R (h))
COc1cc2nccc(Oc3ccc(NC(=O)c4nn(C5CC5)cc(-c5ccc(F)cc5)c4=O)cn3)c2cc1OC [Compound 36]	0.095	57.5	167000	0.0967	11.6	4	463000	12.7	7.17
COc1cc2nccc(Oc3cnc(NC(=O)c4cn(C(C)C)nc(-c5ccc(F)cc5)c4=O)nc3)c2cc1OC [Compound 39, N-(5-((6,7-dimethoxyquinolin-4-yl)oxy)pyrimidine-2-yl)-6-(4-fluorophenyl)-2-isopropyl-5-oxo-2,5-dihydropyridazine-4-carboxamide]	1.21	90.2	6920	2.5	5.89	2	32400	5.67	7.47
COc1cc2nccc(Oc3ccc(NC(=O)c4cn(C(C)C)cc(-c5ccc(C)cc5)c4=O)nc3)c2cc1OC [Compound 1, N-(5-((6,7-dimethoxyquinolin-4-yl)oxy)pyridin-2-yl)-1-isopropyl-4-oxo-5-p-tolyl-1,4-dihydropyridin-3-carboxamide]	–	–	–	–	–	–	–	–	6.70
COc1cc2nccc(Oc3ccc(NC(=O)c4cn(C(C)C)cc(-c5ccc(F)cc5)c4=O)nc3)c2cc1OC [Compound 14, N-(5-((6,7-dimethoxyquinolin-4-yl)oxy)pyridin-2-yl)-5-(4-fluorophenyl)-1-isopropyl-4-oxo-1,4-dihydropyridin-3-carboxamide]	0.25	63.2	34900	0.45	6.3	2	110000	12.1	7.26
COc1cc2nccc(Oc3cnc(NC(=O)c4cn(C5CC5)cc(-c5ccc(F)cc5)c4=O)nc3)c2cc1OC [Compound 32, 1-cyclopropyl-N-(5-((6,7-dimethoxyquinolin-4-yl)oxy)pyrimidine-2-yl)-5-(4-fluorophenyl)-4-oxo-1,4-dihydropyridin-3-carboxamide]	0.23	75.4	23900	0.75	3.74	4	90500	5.04	7.03
COc1cc2nccc(Oc3cnc(NC(=O)c4nn(C5CC5)cc(-c5ccc(F)cc5)c4=O)nc3)c2cc1OC [Compound 33]	0.146	31.7	55700	0.3	5.47	2	88800	4.73	7.43
COc1cc2nccc(Oc3ccc(NC(=O)c4cn(C5CC5)cc(-c5ccc(F)cc5)c4=O)nc3)c2cc1OC [Compound 30, N-(5-((6,7-dimethoxyquinolin-4-yl)oxy)pyridin-2-yl)-1-cyclopropyl-4-oxo-5-para-fluorophenyl-1,4-hydropyridin-3-carboxamide]	0.30	78.7	41400	0.4	8.68	6	152000	13.4	7.21
COc1cc2nccc(Oc3ccc(NC(=O)c4cn(C(C)C)nc(-c5ccc(F)cc5)c4=O)nc3)c2cc1OC [Compound 41, N-(5-((6,7-dimethoxyquinolin-4-yl)oxy)pyridin-2-yl)-6-(4-fluorophenyl)-2-isopropyl-5-oxo-2,5-dihydropyridazine-4-carboxamide]	6.81	103	2750	5.83	14.1	4	14400	13.7	–

Continued, values first:

Vz_obs iv (apparent distribution volume) (Rat PK evaluation; IV 1 mg/kg) [L/kg]	bioavailability (Rat PK evaluation; IV 1 mg/kg, PO 5 mg/kg) [%]	AUC(0-t) (Rat PK evaluation; [1]) [ng·h/mL]	clearance (Rat PK evaluation; IV 1 mg/kg) [mL/min/kg]	half-life (Rat PK evaluation; [2]) [h]	Tmax (Rat PK evaluation; PO 5 mg/kg) [h]	AUC(0-t) (Rat PK evaluation; [3]) [ng·h/mL]	half-life (Rat PK evaluation; [4]) [h]	pIC50 (CSF1R (h))	SMILES
1.84	63.4	7270	2.33	9.18	4	23000	8.68	6.59	COc1cc2nccc(Oc3ncc(NC(=O)c4cn(C(C)C)nc(-c5ccc(F)cc5)c4=O)cn3)c2cc1OC [Compound 40, N-(2-((6,7-dimethoxyquinolin-4-yl)oxy)pyrimidine-5-yl)-6-(4-fluorophenyl)-2-isopropyl-5-oxo-2,5-dihydropyridazine-4-carboxamide]
0.15	80.4	81000	0.217	7.46	4	321000	8.31	6.79	COc1cc2nccc(Oc3ncc(NC(=O)c4nn(C(C)C)cc(-c5ccc(F)cc5)c4=O)cn3)c2cc1OC [Compound 34, N-(2-((6,7-dimethoxyquinolin-4-yl)oxy)pyrimidine-5-yl)-5-para-fluorophenyl-1-isopropyl-4-oxo-1,4-dihydropyridazine-3-carboxamide]
3.32	81.6	6000	2.5	15.2	4	25500	12.1	7.24	COc1cc2nccc(Oc3ccc(NC(=O)c4cn(C(C)C)nc(-c5ccc(F)cc5)c4=O)cn3)c2cc1OC [Compound 38, N-(6-((6,7-dimethoxyquinolin-4-yl)oxy)pyridin-3-yl)-6-para-fluorophenyl-2-isopropyl-5-oxo-2,5-dihydropyridazine-4-carboxamide]
0.12	78.7	69700	0.233	5.98	4	273000	7.73	–	COc1cc2nccc(Oc3ncc(NC(=O)c4nn(C5CC5)cc(-c5ccc(F)cc5)c4=O)cn3)c2cc1OC [Compound 37, 1-cyclopropyl-N-(2-((6,7-dimethoxyquinolin-4-yl)oxy)pyrimidine-5-yl)-5-para-fluorophenyl-4-oxo-1,4-dihydropyridazine-3-carboxamide]
